# Source: the supplement of paper PMC10307832
# Compound: CC(C)(C)c1nc(-c2cccc(NS(=O)(=O)c3c(F)cccc3F)c2F)c(-c2ccnc(N)n2)s1 [Dabrafenib] + CC(C)C[C@H](NC(=O)[C@H](Cc1ccccc1)NC(=O)c1cnccn1)B(O)O [Bortezomib] (partner 0.002 µM)
# Experiment: relative viability (nuclei count vs DMSO), 5 days (fraction); higher = more cells survive
# Conditions: first compound 0.3 µM
# How it was run: (§1)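 After 5 days of treatment, lung cancer cells in 1536-well plates were fixed and stained in a single step (final 0.05% Triton X-100, 1% formaldehyde, 1 ug/ml Hoechst) and their nuclei counted on 4× images. Treatment had been applied by pin tool the day after seeding as one drug alone or as a fixed anchor-drug dose with five library-drug doses (not always all listed) in √10 steps. Relative viability is the nuclei count of treated wells divided by that of vehicle wells, and values are medians of duplicate plates.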
row,Cell Line,relative viability
1,NCI-H2009,0.517
2,NCI-H2347,0.84
3,NCI-H520,0.731
4,LXF-289,1.13
5,LC-2-ad,1.09
6,201T,1.1
7,NCI-H1666,0.814
8,NCI-H2023,1.02
9,NCI-H322M,1.34
10,HARA,1.27

# Compound: NC(=O)c1ccc(N(C(N)=O)c2c(F)cccc2F)nc1-c1ccc(F)cc1F [VX-702] + C[C@@H](Oc1cc(-c2cnn(C3CCNCC3)c2)cnc1N)c1c(Cl)ccc(F)c1Cl [Crizotinib] (partner 1 µM)
# Experiment: as above
# Conditions: first compound 0.02 µM
# How it was run: as §1
row,Cell Line,relative viability
1,LU99A,0.61
2,EKVX,0.774
3,COR-L23,0.768
4,NCI-H1437,0.916
5,RERF-LC-KJ,0.876
6,NCI-H1734,0.593
7,BEN,0.732
8,NCI-H460,0.835
9,H3255,0.774
10,SK-LU-1,0.96
11,NCI-H23,0.524
12,SW 1573,0.8
13,NCI-H838,0.779
14,EPLC-272H,0.968
15,NCI-H3122,0.268
16,NCI-H1915,0.868
17,NCI-H727,0.826
18,NCI-H1975,0.919

row,Cell Line,relative viability
1,HCC-366,0.588
2,NCI-H2087,0.847
3,LCLC-97TM1,0.285
4,NCI-H661,1.08
5,NCI-H2405,0.791
6,NCI-H1993,0.882
7,PC-3 [JPC-3],0.974
8,NCI-H2009,1.11
9,NCI-H2347,0.733
10,NCI-H520,0.887
11,LXF-289,0.924
12,LC-2-ad,0.502
13,201T,1.01
14,NCI-H1666,1.1
15,NCI-H2023,0.586
16,NCI-H322M,1.04
17,HARA,1.1

# Same assay, conditions: first compound 0.2 µM
row,Cell Line,relative viability
1,LU99A,0.467
2,EKVX,0.969
3,COR-L23,0.666
4,NCI-H1437,0.871
5,RERF-LC-KJ,0.849
6,NCI-H1734,0.55
7,BEN,0.781
8,NCI-H460,0.951
9,H3255,1.09
10,SK-LU-1,0.751
11,NCI-H23,0.523
12,SW 1573,0.721
13,NCI-H838,0.755
14,EPLC-272H,0.773
15,NCI-H3122,0.238
16,NCI-H1915,0.845
17,NCI-H727,0.745

row,Cell Line,relative viability
1,NCI-H1975,0.982
2,HCC-366,0.396
3,NCI-H2087,0.862
4,LCLC-97TM1,0.342
5,NCI-H661,0.977
6,NCI-H2405,0.813
7,NCI-H1993,0.717
8,PC-3 [JPC-3],0.966
9,NCI-H2009,1.13
10,NCI-H2347,0.763
11,NCI-H520,0.687
12,LXF-289,0.802
13,201T,1.02
14,NCI-H1666,0.923
15,NCI-H2023,0.563
16,NCI-H322M,0.861
17,HARA,0.982

# Same assay, conditions: first compound 0.6325 µM
row,Cell Line,relative viability
1,LU99A,0.475
2,EKVX,0.905
3,COR-L23,0.668
4,NCI-H1437,0.873
5,RERF-LC-KJ,0.825
6,NCI-H1734,0.573
7,BEN,0.937
8,NCI-H460,0.958
9,H3255,0.855
10,SK-LU-1,0.934
11,NCI-H23,0.678
12,SW 1573,0.773
13,NCI-H838,0.807
14,EPLC-272H,0.983
15,NCI-H3122,0.251
16,NCI-H1915,0.913
17,NCI-H727,0.841
18,NCI-H1975,0.889

row,Cell Line,relative viability
1,HCC-366,0.525
2,NCI-H2087,0.867
3,LCLC-97TM1,0.421
4,NCI-H661,0.939
5,NCI-H2405,0.774
6,NCI-H1993,0.852
7,PC-3 [JPC-3],1.03
8,NCI-H2009,1.18
9,NCI-H2347,0.858
10,NCI-H520,0.784
11,LXF-289,0.874
12,LC-2-ad,0.449
13,201T,1.08
14,NCI-H1666,1.03
15,NCI-H2023,0.555
16,NCI-H322M,1.01
17,HARA,1.07

# Same assay, conditions: first compound 2 µM
row,Cell Line,relative viability
1,LU99A,0.437
2,EKVX,1.2
3,COR-L23,0.757
4,NCI-H1437,1.18
5,RERF-LC-KJ,0.875
6,NCI-H1734,0.71
7,BEN,0.956
8,NCI-H460,1.05
9,H3255,0.86
10,SK-LU-1,0.963
11,NCI-H23,0.756
12,SW 1573,0.784
13,NCI-H838,0.976
14,EPLC-272H,1.16
15,NCI-H3122,0.258
16,NCI-H1915,0.944
17,NCI-H727,0.961
18,NCI-H1975,1.14

row,Cell Line,relative viability
1,HCC-366,0.601
2,NCI-H2087,0.739
3,LCLC-97TM1,0.558
4,NCI-H661,1.11
5,NCI-H2405,0.99
6,NCI-H1993,0.792
7,PC-3 [JPC-3],1.04
8,NCI-H2009,1.25
9,NCI-H2347,0.731
10,NCI-H520,0.966
11,LXF-289,0.864
12,LC-2-ad,0.504
13,201T,1.04
14,NCI-H1666,1.12
15,NCI-H2023,0.698
16,NCI-H322M,1.08
17,HARA,1.13

# Compound: CC(C)(C)c1nc(-c2cccc(NS(=O)(=O)c3c(F)cccc3F)c2F)c(-c2ccnc(N)n2)s1 [Dabrafenib] + Nc1ncn([C@H]2C[C@H](O)[C@@H](CO)O2)c(=O)n1 [Decitabine] (partner 2 µM)
# Experiment: as above
# Conditions: first compound 0.003 µM
# How it was run: as §1
row,Cell Line,relative viability
1,LU99A,0.965
2,COR-L23,0.475
3,NCI-H1437,0.582
4,RERF-LC-KJ,0.792
5,NCI-H460,0.588
